Data on 22 compounds can be found in US11046649B2, “Compounds useful as inhibitors of indoleamine 2,3-dioxygenase and/or tryptophan dioxygenase” (Board of Regents, The University of Texas System, priority 2018, dated 2021).

T1 sequence (P14902 whole entry): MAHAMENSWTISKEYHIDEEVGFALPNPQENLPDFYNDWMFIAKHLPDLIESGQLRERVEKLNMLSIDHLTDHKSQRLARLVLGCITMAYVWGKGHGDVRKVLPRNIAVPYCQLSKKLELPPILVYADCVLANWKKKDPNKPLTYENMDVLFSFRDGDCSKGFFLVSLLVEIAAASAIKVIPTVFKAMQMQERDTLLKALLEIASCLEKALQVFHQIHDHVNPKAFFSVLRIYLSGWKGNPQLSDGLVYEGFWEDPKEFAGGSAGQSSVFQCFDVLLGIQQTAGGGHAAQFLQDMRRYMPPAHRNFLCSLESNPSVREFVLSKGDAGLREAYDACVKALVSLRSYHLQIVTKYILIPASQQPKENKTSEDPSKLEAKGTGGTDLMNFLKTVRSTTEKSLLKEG

The experiment addresses T1, IDO1 (Homo sapiens, UniProt P14902).
T1 construct: endogenous in cells; host or cells: HeLa cells (ATCC), IDO1 induced with 10 ng/mL IFNgamma
Description: IDO1 cell-based assay. The following applies: HeLa cells, 10 ng/mL IFNgamma, 24 hours with test compound; N-Formyl Kynurenine and L-tryptophan quantified by RFMS.
`C[C@H](C(=O)Nc1ccc(-c2ccc(C(F)(F)F)nc2)cc1)[C@H]1[C@@H]2C[C@@H](n3cnc4cc(F)c(F)cc43)C[C@@H]21` [Example 86, (S)-2-((1R,3R,5S,6r)-3-(5,6-difluoro-1H-benzo[d]-imidazol-1-yl)bicyclo-[3.1.0]hexan-6-yl)-N-(4-(6-(trifluoromethyl)pyridin-3-yl)phenyl)propanamide] showed an IC50 of 568 nM.
`COc1ccc(NC(=O)C(C)[C@H]2[C@@H]3C[C@@H](n4cnc5cc(F)c(F)cc54)C[C@@H]32)nc1` (stereo partly drawn) [Example 27, 2-((1R,3s,5S,6r)-3-(5,6-difluoro-1H-benzo[d]-imidazol-1-yl)bicyclo-[3.1.0]hexan-6-yl)-N-(5-methoxypyridin-2-yl)-propanamide] yielded a half-inhibitory concentration (IC50) of 6.63 nM.
For the compound `CC(C(=O)NC12CC(F)(C1)C2)[C@H]1[C@@H]2C[C@@H](n3cnc4cc(F)c(F)cc43)C[C@@H]21` (stereo partly drawn) [Example 28, 2-((1R,3s,5S,6r)-3-(5,6-difluoro-1H-benzo[d]-imidazol-1-yl)bicyclo-[3.1.0]hexan-6-yl)-N-(3-fluorobicyclo[1.1.1]pentan-1-yl)propanamide], 2520 nM corresponded to half-maximal inhibition (IC50).
For `CC(C(=O)Nc1ccc(F)cn1)[C@H]1[C@@H]2C[C@@H](n3cnc4cc(F)c(F)cc43)C[C@@H]21` (stereo partly drawn) [Example 4, 2-((1R,3s,5S,6r)-3-(5,6-difluoro-1H-benzo[d]imidazol-1-yl)bicyclo[3.1.0]hexan-6-yl)-N-(5-fluoropyridin-2-yl)propanamide], the IC50 stood at 5.1 nM.
Take `CC(C(=O)NC12CC(N)(C1)C2)[C@H]1[C@@H]2C[C@@H](Oc3ccnc4ccc(F)cc34)C[C@@H]21` (stereo partly drawn) [Example 11, N-(3-aminobicyclo[1.1.1]pentan-1-yl)-2-((1R,3s,5S,6r)-3-((6-fluoroquinolin-4-yl)oxy)-bicyclo-[3.1.0]hexan-6-yl)propanamide]: the IC50 worked out at 1600 nM.
As for `C[C@H](C(=O)Nc1ccc(-c2ccc(C#N)nc2)cc1)[C@H]1[C@@H]2C[C@@H](n3cnc4cc(F)c(F)cc43)C[C@@H]21` [Example 79, (S)-N-(4-(6-cyanopyridin-3-yl)phenyl)-2-((1R,3R,5S,6r)-3-(5,6-difluoro-1H-benzo[d]-imidazol-1-yl)bicyclo-[3.1.0]hexan-6-yl)-propanamide], the IC50 amounted to 878 nM.
`CC(C(=O)Nc1ccn(C)n1)[C@H]1[C@@H]2C[C@@H](n3cnc4cc(F)c(F)cc43)C[C@@H]21` (stereo partly drawn) [Example 34, 2-((1R,3s,5S,6r)-3-(5,6-difluoro-1H-benzo[d]-imidazol-1-yl)bicyclo-[3.1.0]hexan-6-yl)-N-(1-methyl-1H-pyrazol-3-yl)-propanamide] had an IC50 of 179 nM.
Then `CCC(C(=O)Nc1ccc(C(N)=O)cn1)[C@H]1[C@@H]2C[C@@H](Oc3ccnc4ccc(F)cc34)C[C@@H]21` (stereo partly drawn) [Example 118, 6-(2-((1R,3s,5S,6r)-3-((6-fluoroquinolin-4-yl)oxy)-bicyclo[3.1.0]hexan-6-yl)-butanamido)nicotinamide], with 21.3 nM.
In the case of `C[C@H](C(=O)Nc1ccc(-c2ccc(C#N)cn2)cc1)[C@H]1[C@@H]2C[C@@H](n3cnc4cc(F)c(F)cc43)C[C@@H]21` [Example 83, (S)-N-(4-(5-cyanopyridin-2-yl)phenyl)-2-((1R,3R,5S,6r)-3-(5,6-difluoro-1H-benzo[d]-imidazol-1-yl)bicyclo-[3.1.0]hexan-6-yl)-propanamide], the IC50 worked out at 845 nM.
Then `CC(=O)NC12CC(NC(=O)C(C)[C@H]3[C@@H]4C[C@@H](Oc5ccnc6ccc(F)cc56)C[C@@H]43)(C1)C2` (stereo partly drawn) [Example 133, N-(3-acetamidobicyclo-[1.1.1]pentan-1-yl)-2-((1R,3s,5S,6r)-3-((6-fluoro-quinolin-4-yl)oxy)bicyclo-[3.1.0]hexan-6-yl)-propanamide], with 420 nM; and `COCC12CC(NC(=O)C(C)[C@H]3[C@@H]4C[C@@H](Oc5ccnc6ccc(F)cc56)C[C@@H]43)(C1)C2` (stereo partly drawn) [Example 9, 2-((1R,3s,5S,6r)-3-((6-fluoroquinolin-4-yl)oxy)bicyclo[3.1.0]hexan-6-yl)-N-(3-(methoxymethyl)bicyclo[1.1.1]pentan-1-yl)propanamide], with 55 nM; and `CC(C(=O)NC1CCN(C(=O)OC(C)(C)C)CC1)[C@H]1[C@@H]2C[C@@H](Oc3ccnc4ccc(F)cc34)C[C@@H]21` (stereo partly drawn) [Example 94, tert-butyl 4-(2-((1R,3s,5S,6r)-3-((6-fluoroquinolin-4-yl)oxy)-bicyclo[3.1.0]hexan-6-yl)-propanamido)piperidine-1-carboxylate], with 1090 nM.
In the case of `CC(c1nc2cc(C(F)(F)F)ccc2[nH]1)[C@H]1[C@@H]2C[C@@H](Oc3ccnc4ccc(F)cc34)C[C@@H]21` (stereo partly drawn) [Example 137, 6-fluoro-4-(((1R,3s,5S,6r)-6-(1-(5-(trifluoromethyl)-1H-benzo[d]imidazol-2-yl)-ethyl)bicyclo[3.1.0]hexan-3-yl)oxy)quinoline], the IC50 turned out to be 1.2 nM.
Regarding `COc1ccc(-c2ccc(NC(=O)[C@@H](C)[C@H]3[C@@H]4C[C@@H](n5cnc6cc(F)c(F)cc65)C[C@@H]43)cc2)cn1` [Example 6, (S)-2-((1R,3R,5S,6r)-3-(5,6-difluoro-1H-benzo[d]imidazol-1-yl)bicyclo[3.1.0]hexan-6-yl)-N-(4-(6-methoxypyridin-3-yl)phenyl)propanamide], the IC50 amounted to 329 nM.
The compound `CC(C(=O)NC1CC(F)C1)[C@H]1[C@@H]2C[C@@H](n3cnc4cc(F)c(F)cc43)C[C@@H]21` (stereo partly drawn) [Example 25, 2-((1R,3s,5S,6r)-3-(5,6-difluoro-1H-benzo[d]-imidazol-1-yl)bicyclo-[3.1.0]hexan-6-yl)-N-(3-fluorocyclobutyl)-propanamide] yielded an IC50 of 3420 nM.
With `CC(C(=O)Nc1ccc(C#N)nn1)[C@H]1[C@@H]2C[C@@H](Oc3ccnc4ccc(F)cc34)C[C@@H]21` (stereo partly drawn) [Example 76, N-(6-cyanopyridazin-3-yl)-2-((1R,3s,5S,6r)-3-((6-fluoroquinolin-4-yl)oxy)-bicyclo[3.1.0]hexan-6-yl)-propanamide], the IC50 stood at 4.6 nM.
Then `N#Cc1ccc(NC(=O)C(C2CC2)[C@H]2[C@@H]3C[C@@H](Oc4ccnc5ccc(F)cc45)C[C@@H]32)nc1` (stereo partly drawn) [Example 121, N-(5-cyanopyridin-2-yl)-2-cyclopropyl-2-((1R,3s,5S,6r)-3-((6-fluoroquinolin-4-yl)-oxy)bicyclo[3.1.0]hexan-6-yl)acetamide], with 1.67 nM; and `CC(C(=O)Nc1ccc(C2CC2)nc1)[C@H]1[C@@H]2C[C@@H](n3cnc4cc(F)c(F)cc43)C[C@@H]21` (stereo partly drawn) [Example 56, N-(6-cyclopropylpyridin-3-yl)-2-((1R,3s,5S,6r)-3-(5,6-difluoro-1H-benzo[d]-imidazol-1-yl)bicyclo-[3.1.0]hexan-6-yl)-propanamide], with 5.7 nM; and `Cc1ccc(-c2ccc(NC(=O)[C@@H](C)[C@H]3[C@@H]4C[C@@H](n5cnc6cc(F)c(F)cc65)C[C@@H]43)cc2)cn1` [Example 67, (S)-2-((1R,3R,5S,6r)-3-(5,6-difluoro-1H-benzo[d]-imidazol-1-yl)-bicyclo[3.1.0]hexan-6-yl)-N-(4-(6-methylpyridin-3-yl)phenyl)propanamide], with 261 nM.
Compound `CCC(C(=O)Nc1cnc(C)cn1)[C@H]1[C@@H]2C[C@@H](Oc3ccnc4ccc(F)cc34)C[C@@H]21` (stereo partly drawn) [Example 120, 2-((1R,3s,5S,6r)-3-((6-fluoroquinolin-4-yl)oxy)-bicyclo[3.1.0]hexan-6-yl)-N-(5-methylpyrazin-2-yl)-butanamide] showed an IC50 of 1.43 nM.
Consider `CC(C(=O)Nc1cc(C2CC2)nn1C)[C@H]1[C@@H]2C[C@@H](n3cnc4cc(F)c(F)cc43)C[C@@H]21` (stereo partly drawn) [Example 48, N-(3-cyclopropyl-1-methyl-1H-pyrazol-5-yl)-2-((1R,3s,5S,6r)-3-(5,6-difluoro-1H-benzo[d]-imidazol-1-yl)bicyclo-[3.1.0]hexan-6-yl)-propanamide], for which the IC50 was 589 nM.
`CC(C(=O)Nc1cnn(-c2ccccc2)c1)[C@H]1[C@@H]2C[C@@H](Oc3ccnc4ccc(F)cc34)C[C@@H]21` (stereo partly drawn) [Example 143, 2-((1R,3s,5S,6r)-3-((6-fluoroquinolin-4-yl)-oxy)bicyclo[3.1.0]hexan-6-yl)-N-(1-phenyl-1H-pyrazol-4-yl)propanamide] yielded an IC50 of 2.77 nM.

The IC50 is the concentration at which inhibition is half-maximal.
